Results reported in patent publication EP1345618B1, “CHLORZOXAZONE FOR THE TREATMENT OF PSORIASIS” (Switch Biotech Aktiengesellschaft, priority 2000, dated 2002).
Entries after “also recorded” stand apart in the source; their conditions may differ. Read-outs that look alike come from different tables or passages of the source.

Columns and labels:
Assay type in all cases: cell-based
HaCaT-Keratinozyten [1] = assay: Patch-clamp recording of the membrane potential (Vm) of HaCaT keratinocytes; conditions: for Depolarisierung auf ein Plateau während der Behandlung mit ATP: other K+ channel blockers, compared with ChTx and Clotrimazol
Procedure: Um einen Ionenkanal zu identifizieren, der wesentlich bei der Signaltransduktion wundheilungsspezifischer Signale beteiligt ist, wurden HaCaT-Zellen elektrophysiologisch untersucht. Die Anzucht der HaCaT-Keratinozyten erfolgte in DEM mit 10% FRS (Gibco BRL), den Antibiotika (Penicillin/Streptomycin 100 U/ml) zugesetzt worden war. Die Ca^2+-Endkonzentration betrug 1,8 mM. Die Zellen wurden inkubiert bis eine konfluente Zellkultur entstanden war; anschließend wurde das Kulturmedium durch "Standard Bath Solution" (SBS; 130 mM NaCl, 3 mM KCl; 2 mM CaCl2; 2 mM MgCl2; 25 mM HEPES/NaHEPES; 10 mM D-Glukose; pH 7,4) ersetzt und die Schalen an einem inversen Mikroskop (Axiovert, Zeiss) untersucht. Die "Patch"-Pipetten wurden aus Borosilikatröhrchen an einer horizontalen Ausziehvorrichtung (DMZ, Zeitz) nach dem zweistufigen Ausziehverfahren hergestellt. Die Pipetten wurden anschließend mit einer Lösung, die 135 mM Kaliumglukonat, 10 mM KCl, 1,6 mM Na2HPO4, 0,73 mM CaCl2, 1,03 mM MgCl2, 1 mM EGTA, 14 mM HEPES/NaHEPES und […] Nystatin; pH 7,2 enthielt, gefüllt (Ca^2+-Aktivität in der Lösung= 10^-7 M). Der Widerstand dieser "Patch"-Pipetten betrug […] im Bad. Nachdem eine Versiegelung im GΩ-Bereich hergestellt wurde (typischerweise 1,5-2 GΩ) wurde der Verstärker auf Strom-Klemm Modus umgestellt. […] Die elektrophysiologischen Signale wurden mittels eines Axopatch 200 Verstärkers in Verbindung mit einem TL-1 Labmaster Interface und AXOTAPE Software (Axon Instruments) aufgenommen, verstärkt und digitalisiert. Die statistische Auswertung (ein-Weg ANOVA mit Bonferri post-test Vergleich) wurde mit Graphpad prism 2.0 durchgeführt.
Bei Experimenten, bei denen die intrazelluläre Ca^2+-Konzentration durch Blitzphotolyse von "caged IP3" (Calbiochem) erhöht wurde, wurde das "Patch-Clamp Recording" in der Ganzzell-Konfiguration durchgeführt, wobei eine Pipettenlösung enthaltend 120 mM Kaliumglukonat, 20 mM KCl, 1 mM MgCl2, 10 mM HEPES/NaHEPES, 2 mM Na2ATP, 0,3 mM NaGTP (pH 7,2) und 10-100 µM "caged IP3" verwendet wurde. Nach 5-7 min Ganzzell-Aufzeichnung wurde IP3 durch einen UV-Lichtblitz freigesetzt, der durch eine Xenon-Bogen-Lampe (75 W; Anregungsfilter: 330 ± 40 nm), die mit dem Epifluoreszenzport des Mikroskops verbunden war, generiert wurde. Der UV-Lichtstrahl wurde durch das 40-fach Phasenkontrastobjektiv auf die Keratinozyten fokussiert. Die Dauer des Blitzes (1 s) wurde durch einen Uniblitz "Shutter" (Vincent Assoc.) eingestellt.
Bei Experimenten, bei denen die gesamte Lösung, in der die Zellen inkubiert wurden ausgewechselt wurde, wurde ein konischer Plexiglaseinsatz mit mehrfachen Einflußleitungen und einer Ausflußleitung in die Kulturschale eingesetzt, um das Volumen der Ableitkammer auf 1 ml zu reduzieren. Der Zufluß von Flüssigkeit war Schwerkraft-abhängig und wurde durch magnetische Ventile kontrolliert. Der Ausfluß wurde durch das Anlegen eines negativen Drucks mittels einer Vakuumpumpe bewirkt. Die Zugabe von Substanzen erfolgte unter visueller Beobachtung direkt auf die zu untersuchenden Keratinozyten mittels eines ferngesteuerten, magnetgesteuerten Y-Rohrsystem (Durchmesser des Ausflußröhrchens: 100 µm).
Die elektrophysiologischen Ableitungen mittels perforierten "Patches" wurden an HaCaT-Zellen durchgeführt, die zu einem konfluenten Monolayer gewachsen waren.

HaCaT Zellen [2] = assay: BrDU incorporation cell proliferation ELISA (A[450 nm])
Text: Dabei wurde zunächst der Einfluss verschiedener Konzentrationen von 1-EBIO auf die Wachstumsrate von HaCaT Zellen in An- und Abwesenheit von Serum gemessen. Zu diesem Zweck wurden 1x10^4 HaCaT Zellen pro "Well" in einer 96-"Well" Platte 5 Tage lang in Keratinozytenwachstumsmedium (KGM) kultiviert, um den Zellzyklus zu synchronisieren, gefolgt von einer zweitägigen Inkubation verschiedener Konzentrationen an 1-EBIO in KGM (siehe Figuren 7 und 8) in Abwesenheit (Figur 7) und in Anwesenheit (Figur 8) von Serum. […] Als Lösungmittelkontrolle diente 1% DMSO in KGM. Die Zellproliferation wurde mit Hilfe des Einbaus von […] (BrDU) während der Zellteilung gemäß den Angaben des Herstellers gemessen ("The Cell Proliferation ELISA, BrDU, Roche). Der Einbau von BrDU wurde dabei durch die Bestimmung der Absorption bei 450 nm quantifiziert. In Figur 7 und 8 ist jeweils die Absorption (A[450nm]) als Maß für die Proliferationsrate auf der Y-Achse aufgetragen. Eine höhere Absorption spiegelt eine stärkere Proliferation wieder.

HaCaT-Zellen = assay: Anti-K10 immunostaining of HaCaT cells (differentiation); conditions: 1 mM 1-EBIO, 3 days, compared with control cells without 1-EBIO
Procedure: Dazu wurden proliferierende subkonfluente Zellen, Zellen, die gerade Konfluenz erreicht hatten, und ruhende Zellen (4 Tage nach Konfluenz) untersucht. Die Aktivität dieser Keratinozyten wurde anhand der differenzierungsspezifischen Keratin-10-Expression bestimmt. Dazu wurden die Zellen in eiskaltem PBS gewaschen und mit Aceton/Methanol (1:1) 20 min bei -20°C fixiert. Endogene Peroxidasen wurden mit 1 % H2O2 bei Raumtemperatur blockiert. Nachdem die unspezifischen Bindungsstellen mit 3% BSA in PBS abgesättigt worden waren, wurden die Zellen über Nacht in einer 1:500 Verdünnung des Maus-anti-K10 Antikörpers (DAKO) in 3% BSA in PBS bei 4°C inkubiert und anschließend drei Mal mit PBS und einmal mit 3% BSA in PBS gewaschen. Nach 2 h Inkubation mit einem Peroxidase-gekoppelten anti-Maus Antikörper bei Raumtemperatur wurden die Zellen dreimal mit PBS und einmal mit ddH2O gewaschen. Anschließend wurden die Zellen mit dem Peroxidase Substrat-Kit und 3-Amino-9-ethylcarbazol als chromogenes Substrat (Vector Laboratories) gefärbt. Während die proliferierenden Zellen und die Zellen, die gerade Konfluenz erreicht hatten, keine Färbung aufwiesen, zeigte es sich, daß ein Großteil der postkonfluenten Zellen gefärbt war (Figur 3). […]

HaCaT-Keratinozyten [3] = assay: Proliferation by daily count of cells per well; conditions: subconfluent cells, n=3
Procedure: Um den Effekt der Inhibitoren des hIK1 Kanals, Clotrimazol und Charybdotoxin, zu untersuchen, wurde zu subkonfluent gewachsenen Zellen entweder 10 µM Clotrimazol, 200 nM Charybdotoxin (ChTx) oder 1 mM 1-EBIO zugegeben und jeden Tag die Anzahl Zellen pro well bestimmt.
Wie aus Figur 5 (n=3) ersichtlich ist, inhibierte die Zugabe sowohl eines der beiden Inhibitoren als auch die Zugabe des Aktivators von hIK1 die Proliferation, während das Wachstum der Kontrollzellen, denen keine Modulatoren zugesetzt worden waren, unbeeinträchtigt blieb.

HaCaT Zellen [4] = assay: Immunoblot of keratinocyte differentiation markers Involucrin, Keratin 1 and Keratin 10; conditions: 1, 100, 1000 µM; 4 days; control 1% DMSO
Text: Dazu wurden in einer 6-"Well"- Platte 5x10^5 HaCaT Zellen pro "Well" in Medium angezogen. Am nächsten Tag wurde das Medium gewechselt auf Medium, das verschiedene Konzentrationen an 1-EBIO bzw. […] Als Lösungsmittelkontrolle wurde 1% DMSO (Spur "C") in Medium benutzt. Die Zellen wurden 4 Tage lang inkubiert, wobei das Medium täglich ersetzt wurde. Nach 4 Tagen wurden die Proteinkonzentration in den Zelllysaten bestimmt (BCA Assay, Pierce). Gleiche Proteinmengen aus den verschiedenen Lysaten wurden anschliessend mittels Immunoblot gegen die Keratinozytendifferenzierungsmarker Involucrin (1:500, Sigma) sowie Keratin 1 und 10 (1:250, Progen) verglichen (Figur 6).

“Bradykinin (RPPGFSPFR; Bradykinin; UniProt P01042 381-389, looked up)” was tested, and the “elektrophysiologische Antwort im Vergleich zu ATP” value (HaCaT-Keratinozyten [1]; Bradykinin 10 µM, n=3) was “quantitativ und kinetisch praktisch identische Antwort”.

For `[Ba+2]` [Ba^2+], the “Depolarisierung auf ein Plateau während der Behandlung mit ATP” value (HaCaT-Keratinozyten [1]) was “Keiner der anderen getesteten K^+-Kanalblocker (TEA, Ba^2+, und Verapamil) führten zu einer vergleichbaren Depolarisierung auf ein Plateau”.

`Nc1ncnc2c1ncn2[C@@H]1O[C@H](COP(=O)(O)OP(=O)(O)OP(=O)(O)O)[C@@H](O)[C@H]1O` [ATP] was tested, and the “Reversibilität der Hyperpolarisierung” value (HaCaT-Keratinozyten [1]; 1 µM ATP, n=9) was “durch Auswaschen der Lösung rasch reversiblen Prozeß”, the “Änderung des Membranpotentials” value (HaCaT-Keratinozyten [1]; ATP 1-1000 µM perfusion, perforated patch, current clamp, confluent monolayer) was “biphasische Änderung des Membranpotentials, die aus einer kurzen, transienten Depolarisierung gefolgt von einer deutlichen und langanhaltenden Hyperpolarisierung bestand” and the “Dauer der Hyperpolarisierung nach ATP-Zugabe” value (HaCaT-Keratinozyten [1]; ATP ≥ 10 µM, added for 5 min) was no less than 5 min.

`CCCCCCCCCCCCCC(=O)O[C@@H]1[C@@H](C)[C@@]2(O)[C@@H](C=C(CO)C[C@]3(O)C(=O)C(C)=C[C@@H]23)[C@@H]2C(C)(C)[C@]12OC(C)=O` [PMA] was tested, and the “Membranpotential (langsame Depolarisierung auf)” value (HaCaT-Keratinozyten [1]) was -32 ± 2 mV and the “Einfluß auf den Effekt von ATP” value (HaCaT-Keratinozyten [1]; PMA 60 ng/µl, n=4) was “beeinflußte jedoch nicht den Effekt von ATP”.

With `CCn1c(=O)[nH]c2cc(Cl)c(Cl)cc21` [DCEBIO, 5,6-dichloro-1-ethyl-1,3-dihydro-2H-benzimidazol-2-on] the “Stärke der Depolarisation relativ zu 1-EBIO” value (HaCaT-Keratinozyten [1]; HaCaT Zellen, relative to 1-EBIO) was 300-1000 fach.

`NCCc1c[nH]cn1` [Histamin] was tested, and the “elektrophysiologische Antwort im Vergleich zu ATP” value (HaCaT-Keratinozyten [1]; Histamin 100 µM, n=4) was “quantitativ und kinetisch praktisch identische Antwort”.

For `CCn1c(=O)[nH]c2ccccc21` [1-EBIO, 1-Ethyl-2-benzimidazolinon], the “Dosisabhängigkeit der Inhibition der seruminduzierten Proliferation” value (HaCaT Zellen [2]; 1-EBIO, various concentrations, with serum) was “dosisabhängig ist und den stärksten Effekt bei einer Konzentration von 1 mM zeigt”, the “Zellproliferation ohne Serum” value (HaCaT Zellen [2]; KGM without serum, 2 days, 1-EBIO various concentrations, Zoxazolamin 1 mM) was “alleine nicht in der Lage sind, die Zellproliferation zu stimulieren” and the “Apoptose / Morphologie der Zellen” value (HaCaT Zellen [2]; cells treated with the activators) was “keine Anzeichen von Apoptose”. For the same compound, the “seruminduzierte Proliferation” value (HaCaT Zellen [2]; with 10% FCS, 2 days, 1-EBIO various concentrations, Zoxazolamin 1 mM) was “in der Lage die seruminduzierte Proliferation zu inhibieren”, the “Anteil an K10-gefärbten Zellen (Differenzierung)” value (HaCaT-Zellen) was “signifikant reduzierten Anteil an gefärbten Zellen” and the “Proliferation (Anzahl Zellen pro well)” value (HaCaT-Keratinozyten [3]; 1-EBIO 1 mM) was “inhibierten die Proliferation vollständig; also recorded: vollständigen Inhibition”. For the same compound, the “Differenzierung (Involucrin, K1, K10)” value (HaCaT Zellen [4]) was “dosisabhängig inhibieren” and the “transiente Depolarisierung nach ATP” value (HaCaT-Keratinozyten [1]; ATP 10 µM in the presence of 1-EBIO 1 mM) was “viel stärker war als unter Kontrollbedingungen”.

In the case of `Clc1ccccc1C(c1ccccc1)(c1ccccc1)n1ccnc1` [Clotrimazol], the “Proliferation (Anzahl Zellen pro well)” value (HaCaT-Keratinozyten [3]; Clotrimazol 10 µM) is reported as “inhibierten die Proliferation vollständig; also recorded: vollständigen Inhibition” and the “Einfluß auf die Repolarisierung unter ATP” value (HaCaT-Keratinozyten [1]) is reported as “Derselbe Effekt”.

With Charybdotoxin the “Proliferation (Anzahl Zellen pro well)” value (HaCaT-Keratinozyten [3]; Charybdotoxin 200 nM) was “die Proliferation verlangsamte; also recorded: nur verlangsamtes Wachstum”, the “Einfluß auf die bestehende ATP-vermittelte Hyperpolarisierung” value (HaCaT-Keratinozyten [1]; ChTx 100 nM added after ATP, ATP still present, n=2) was “vollständige Umkehrung der Hyperpolarisierung” and the “Einfluß auf die Repolarisierung unter ATP” value (HaCaT-Keratinozyten [1]; ChTx 100 nM before ATP, n=4) was “verhinderte ChTx die Repolarisierung vollständig”. The “Einfluß auf die ATP-vermittelte Hyperpolarisierung” value (HaCaT-Keratinozyten [1]; ChTx 10-100 nM before ATP, n=15) was “verhinderte eine Hyperpolarisierung” and the “Inhibition der ATP-vermittelten Hyperpolarisierung” value (HaCaT-Keratinozyten [1]; various concentrations, added before ATP) was “dosisabhängige Inhibition der ATP-vermittelten Hyperpolarisierung”.

With `CC[N+](CC)(CC)CC` [TEA] the “Depolarisierung auf ein Plateau während der Behandlung mit ATP” value (HaCaT-Keratinozyten [1]) was “Keiner der anderen getesteten K^+-Kanalblocker (TEA, Ba^2+, und Verapamil) führten zu einer vergleichbaren Depolarisierung auf ein Plateau”.

In the case of Calphostin C, the “Einfluß auf die ATP-vermittelte Spannungsänderung” value (HaCaT-Keratinozyten [1]; Calphostin C 50 nM) is reported as “beeinflußte jedoch ebenfalls nicht die ATP-vermittelte Spannungsänderung” and the “Membranpotential (schwache Hyperpolarisierung auf)” value (HaCaT-Keratinozyten [1]; Calphostin C 50 nM) is reported as -58 ± 3 mV.

With `O=P(O)(O)O[C@@H]1[C@H](O)[C@H](O)[C@@H](OP(=O)(O)O)[C@H](OP(=O)(O)O)[C@H]1O` [IP3] the “Spannungsänderung nach Freisetzung von IP3” value (HaCaT-Keratinozyten [1]; whole-cell, caged-IP3 10-100 µM, UV flash photolysis, n=7) was “schnellen, transienten Depolarisierung, gefolgt von einer Hyperpolarisierung”.
